Reference: PubChem BioAssay (NCI)
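Results reflect a 48-hour exposure of cells in 96-well plates to compound at five concentrations. Here, GI50 denotes the concentration required for 50% inhibition of growth. Definition used: TGI = concentration required for complete inhibition of growth.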

Key:
Assay in all cases: NCI tumour cell line growth inhibition, 48 h
OVCAR-5 ovarian = test system: OVCAR-5 ovarian
MALME-3M melanoma = test system: MALME-3M melanoma
HOP-62 NSCLC = test system: HOP-62 NSCLC
M14 melanoma = test system: M14 melanoma
NCI/ADR-RES ovarian = test system: NCI/ADR-RES ovarian
HT29 colon = test system: HT29 colon
RXF 393 renal = test system: RXF 393 renal
SNB-19 CNS = test system: SNB-19 CNS
SF-539 CNS = test system: SF-539 CNS
PC-3 prostate = test system: PC-3 prostate
K-562 leukemia = test system: K-562 leukemia
SK-MEL-2 melanoma = test system: SK-MEL-2 melanoma
OVCAR-4 ovarian = test system: OVCAR-4 ovarian
HS 578T breast = test system: HS 578T breast
786-0 renal = test system: 786-0 renal
NCI-H226 lung = test system: NCI-H226 lung
SR leukemia = test system: SR leukemia
ACHN renal = test system: ACHN renal
KM12 colon = test system: KM12 colon
HCT-15 colon = test system: HCT-15 colon
TK-10 renal = test system: TK-10 renal
SK-MEL-5 melanoma = test system: SK-MEL-5 melanoma
COLO 205 colon = test system: COLO 205 colon
HOP-92 NSCLC = test system: HOP-92 NSCLC
SN12C renal = test system: SN12C renal
DU-145 prostate = test system: DU-145 prostate
A549 NSCLC = test system: A549 NSCLC
OVCAR-3 ovarian = test system: OVCAR-3 ovarian
MCF7 breast = test system: MCF7 breast
NCI-H460 lung = test system: NCI-H460 lung
UACC-62 melanoma = test system: UACC-62 melanoma
RPMI-8226 leukemia = test system: RPMI-8226 leukemia
CCRF-CEM leukemia = test system: CCRF-CEM leukemia
IGROV1 ovarian = test system: IGROV1 ovarian
MOLT-4 leukemia = test system: MOLT-4 leukemia
BT-549 breast = test system: BT-549 breast
HCT-116 colon = test system: HCT-116 colon
SK-MEL-28 melanoma = test system: SK-MEL-28 melanoma
UO-31 renal = test system: UO-31 renal
SK-OV-3 ovarian = test system: SK-OV-3 ovarian
A498 renal = test system: A498 renal
SNB-75 CNS = test system: SNB-75 CNS
NCI-H23 lung = test system: NCI-H23 lung
SF-268 CNS = test system: SF-268 CNS
CAKI-1 renal = test system: CAKI-1 renal
LOX IMVI melanoma = test system: LOX IMVI melanoma
HL-60(TB) leukemia = test system: HL-60(TB) leukemia
MDA-MB-435 = test system: MDA-MB-435
NCI-H522 lung = test system: NCI-H522 lung
T-47D breast = test system: T-47D breast
OVCAR-8 ovarian = test system: OVCAR-8 ovarian
MDA-MB-231 breast = test system: MDA-MB-231 breast
SW-620 colon = test system: SW-620 colon
HCC-2998 colon = test system: HCC-2998 colon

Structure (SMILES): CCOC(=O)C1=C(N)CCC1C (stereo not drawn)
- GI50 (OVCAR-5 ovarian): > 100 µM
- TGI (OVCAR-5 ovarian): > 100 µM
- GI50 (MALME-3M melanoma): > 100 µM
- TGI (MALME-3M melanoma): > 100 µM
- GI50 (HOP-62 NSCLC): > 100 µM
- TGI (HOP-62 NSCLC): > 100 µM
- GI50 (M14 melanoma): > 100 µM
- TGI (M14 melanoma): > 100 µM
- GI50 (NCI/ADR-RES ovarian): > 100 µM
- TGI (NCI/ADR-RES ovarian): > 100 µM
- GI50 (HT29 colon): > 100 µM
- TGI (HT29 colon): > 100 µM
- GI50 (RXF 393 renal): > 100 µM
- TGI (RXF 393 renal): > 100 µM
- GI50 (SNB-19 CNS): > 100 µM
- TGI (SNB-19 CNS): > 100 µM
- GI50 (SF-539 CNS): > 100 µM
- TGI (SF-539 CNS): > 100 µM
- GI50 (PC-3 prostate): > 100 µM
- TGI (PC-3 prostate): > 100 µM
- GI50 (K-562 leukemia): > 100 µM
- TGI (K-562 leukemia): > 100 µM
- GI50 (SK-MEL-2 melanoma): > 100 µM
- TGI (SK-MEL-2 melanoma): > 100 µM
- GI50 (OVCAR-4 ovarian): > 100 µM
- TGI (OVCAR-4 ovarian): > 100 µM
- GI50 (HS 578T breast): > 100 µM
- TGI (HS 578T breast): > 100 µM
- GI50 (786-0 renal): > 100 µM
- TGI (786-0 renal): > 100 µM
- GI50 (NCI-H226 lung): > 100 µM
- TGI (NCI-H226 lung): > 100 µM
- GI50 (SR leukemia): 8.35 µM
- TGI (SR leukemia): > 100 µM
- GI50 (ACHN renal): > 100 µM
- TGI (ACHN renal): > 100 µM
- GI50 (KM12 colon): > 100 µM
- TGI (KM12 colon): > 100 µM
- GI50 (HCT-15 colon): > 100 µM
- TGI (HCT-15 colon): > 100 µM
- GI50 (TK-10 renal): > 100 µM
- TGI (TK-10 renal): > 100 µM
- GI50 (SK-MEL-5 melanoma): > 100 µM
- TGI (SK-MEL-5 melanoma): > 100 µM
- GI50 (COLO 205 colon): > 100 µM
- TGI (COLO 205 colon): > 100 µM
- GI50 (HOP-92 NSCLC): 41.2 µM
- TGI (HOP-92 NSCLC): > 100 µM
- GI50 (SN12C renal): > 100 µM
- TGI (SN12C renal): > 100 µM
- GI50 (DU-145 prostate): > 100 µM
- TGI (DU-145 prostate): > 100 µM
- GI50 (A549 NSCLC): > 100 µM
- TGI (A549 NSCLC): > 100 µM
- GI50 (OVCAR-3 ovarian): > 100 µM
- TGI (OVCAR-3 ovarian): > 100 µM
- GI50 (MCF7 breast): > 100 µM
- TGI (MCF7 breast): > 100 µM
- GI50 (NCI-H460 lung): > 100 µM
- TGI (NCI-H460 lung): > 100 µM
- GI50 (UACC-62 melanoma): > 100 µM
- TGI (UACC-62 melanoma): > 100 µM
- GI50 (RPMI-8226 leukemia): > 100 µM
- TGI (RPMI-8226 leukemia): > 100 µM
- GI50 (CCRF-CEM leukemia): > 100 µM
- TGI (CCRF-CEM leukemia): > 100 µM
- GI50 (IGROV1 ovarian): > 100 µM
- TGI (IGROV1 ovarian): > 100 µM
- GI50 (MOLT-4 leukemia): 22.7 µM
- TGI (MOLT-4 leukemia): 65.5 µM
- GI50 (BT-549 breast): > 100 µM
- TGI (BT-549 breast): > 100 µM
- GI50 (HCT-116 colon): > 100 µM
- TGI (HCT-116 colon): > 100 µM
- GI50 (SK-MEL-28 melanoma): > 100 µM
- TGI (SK-MEL-28 melanoma): > 100 µM
- GI50 (UO-31 renal): > 100 µM
- TGI (UO-31 renal): > 100 µM
- GI50 (SK-OV-3 ovarian): > 100 µM
- TGI (SK-OV-3 ovarian): > 100 µM
- GI50 (A498 renal): > 100 µM
- TGI (A498 renal): > 100 µM
- GI50 (SNB-75 CNS): > 100 µM
- TGI (SNB-75 CNS): > 100 µM
- GI50 (NCI-H23 lung): > 100 µM
- TGI (NCI-H23 lung): > 100 µM
- GI50 (SF-268 CNS): > 100 µM
- TGI (SF-268 CNS): > 100 µM
- GI50 (CAKI-1 renal): > 100 µM
- TGI (CAKI-1 renal): > 100 µM
- GI50 (LOX IMVI melanoma): > 100 µM
- TGI (LOX IMVI melanoma): > 100 µM
- GI50 (HL-60(TB) leukemia): 69.8 µM
- TGI (HL-60(TB) leukemia): > 100 µM
- GI50 (MDA-MB-435): > 100 µM
- TGI (MDA-MB-435): > 100 µM
- GI50 (NCI-H522 lung): > 100 µM
- TGI (NCI-H522 lung): > 100 µM
- GI50 (T-47D breast): > 100 µM
- TGI (T-47D breast): > 100 µM
- GI50 (OVCAR-8 ovarian): > 100 µM
- TGI (OVCAR-8 ovarian): > 100 µM
- GI50 (MDA-MB-231 breast): > 100 µM
- TGI (MDA-MB-231 breast): > 100 µM
- GI50 (SW-620 colon): > 100 µM
- TGI (SW-620 colon): > 100 µM
- GI50 (HCC-2998 colon): > 100 µM
- TGI (HCC-2998 colon): > 100 µM
